Source: US5041552A, “Amino acid derivatives with angiotensin II antagonist properties” (Warner-Lambert Company, priority 1990, dated 1991)

These compounds were tested against T1, angiotensin II receptor (rat liver membranes) (Rattus norvegicus, UniProt P25095) (assay: Receptor Binding of Angiotensin II (RBAT): inhibition of tritiated angiotensin II binding to rat liver membranes). Conditions: in vitro, read-out: RBAT IC50 (concentration required to displace 50% of the specifically bound tritiated angiotensin II).
T1 construct: rat liver membranes; from tissue; host or cells: rat liver membranes
T1 sequence (P25095 1-359): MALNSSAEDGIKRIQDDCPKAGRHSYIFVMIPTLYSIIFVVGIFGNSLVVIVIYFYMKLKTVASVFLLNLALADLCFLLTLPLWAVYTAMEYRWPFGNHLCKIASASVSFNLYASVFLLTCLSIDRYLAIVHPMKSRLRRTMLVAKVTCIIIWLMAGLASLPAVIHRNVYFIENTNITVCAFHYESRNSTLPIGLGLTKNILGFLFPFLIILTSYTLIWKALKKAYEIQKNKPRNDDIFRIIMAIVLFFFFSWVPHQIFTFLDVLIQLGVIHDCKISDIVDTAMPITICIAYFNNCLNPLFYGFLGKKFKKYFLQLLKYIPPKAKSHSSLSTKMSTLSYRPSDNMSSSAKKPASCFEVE
Method: The effectiveness of the compounds of the instant invention is determined by a test (RBAT) entitled Receptor Binding of Angiotensin II. In this in vitro test the inhibition of tritiated angiotensin II binding to rat liver membranes is measured.
*The IC50 is a concentration required to displace 50% of the specifi
bound tritiated angiotensin II.
An IC50 of 6 µM was found for CCCCc1nc(Cl)c(CO)n1Cc1ccc(NC(=O)C(NC(=O)OC(C)(C)C)C(=O)O)cc1 (racemic) [Example 11] in this work.
An IC50 of 10 µM was found for CCCCc1nc(Cl)c(CO)n1Cc1ccc(NC(=O)C(NC(=O)OCc2ccccc2)C(=O)O)cc1 (racemic) [Example 13, (RS)-3-[[4-[[2-Butyl-4-chloro-5-(hydroxymethyl)-1H-imidazol-1-yl-methyl]phenyl]amino]-3-oxo-2[(phenyl-methoxy)-carbonyl]amino]-propanoic acid] in this work.
An IC50 of 3 µM was found for CCCCc1nc(Cl)c(CO)n1Cc1ccc(NC(=O)[C@H](Cc2ccc(O)cc2)NC(=O)OC(C)(C)C)cc1 [6 (4-Chloro), (S)-[2-[[4-[[2-Butyl-4-chloro-5-(hydroxymethyl)-1H-imidazol-1-yl]methyl]phenyl]amino]-1-[(4-hydroxyphenyl)methyl]-2-oxoethyl]-carbamic acid, 1,1-dimethylethyl ester] in this work.
An IC50 of 3 µM was found for CCCCc1nc(Cl)c(CO)n1Cc1ccc(NC(=O)[C@H](CC#N)NC(=O)OCc2ccccc2)cc1 [Example 5, (S)-[2-[[4-[[2-Butyl-4-chloro-5-(hydroxymethyl)-1H-imidazol-1-yl]methyl]phenyl]amino]-1-(cyanomethyl)-2-oxoethyl]-carbamic acid, phenylmethyl ester] in this work.
An IC50 of 4.5 µM was found for CCCCc1ncc(CO)n1Cc1ccc(NC(=O)[C@H](Cc2ccc(O)cc2)NC(=O)OC(C)(C)C)cc1 [Example 6, (S)-[2-[[4-[[2-butyl-5-(hydroxymethyl)-1H-imidazol-1-yl]methyl]phenyl]amino]-1-[(4-hydroxyphenyl)methyl]-2-oxoethyl]-carbamic acid, 1,1-dimethylethylester] in this work.
An IC50 of 4 µM was found for CCCCc1nc(Cl)c(CO)n1Cc1ccc(NC(=O)[C@H](CC(=O)OC(C)(C)C)NC(=O)OCc2ccccc2)cc1 [Example 7] in this work.
For CCSc1nnc(CO)n1Cc1ccc(NC(=O)[C@H](CC(=O)O)NC(=O)OCc2ccccc2)cc1 [Example 9], the IC50 was > 10 µM.
An IC50 of 2.5 µM was found for CCCCc1nc(Cl)c(CO)n1Cc1ccc(NC(=O)[C@H](Cc2ccccc2)NS(=O)(=O)N2CCOCC2)cc1 [Example 16] in this work.
An IC50 of 3.6 µM was found for CCCCc1nc(Cl)c(CO)n1Cc1ccc(NC(=O)[C@H](Cc2ccccc2)NS(=O)(=O)c2ccccc2)cc1 [Example 17] in this work.
In the case of CCCCc1nc(Cl)c(CO)n1Cc1ccc(NC(=O)N2CCC[C@H]2C(=O)OC)cc1 [Example 18, 1-[[4-[[2-Butyl-4-chloro-5-(hydroxymethyl)-1H-imidazol-1-yl]methyl]phenyl]amino]carbonyl-2-pyrrolidinecarboxylic acid, methyl ester], the IC50 is reported as > 10 µM.
